From patent US11168095B2, “ASK1 inhibiting agents” (BIOGEN MA INC., priority 2017, dated 2021)
pIC50: −log10 of the molar value.

What follows are compounds tested against ASK1 T838 auto phosphorylation in HEK-293T cells (Homo sapiens (Human), UniProt Q99683) (assay: ASK1 (AUTO PHOS T838) assay, MSD format). Conditions: HEK 293T cells transfected with ASK1-V5 full length plasmid, compounds 1 hr at 37° C.; read-out: IC50.
ASK1 T838 auto phosphorylation in HEK-293T cells, sequence (Q99683 whole entry): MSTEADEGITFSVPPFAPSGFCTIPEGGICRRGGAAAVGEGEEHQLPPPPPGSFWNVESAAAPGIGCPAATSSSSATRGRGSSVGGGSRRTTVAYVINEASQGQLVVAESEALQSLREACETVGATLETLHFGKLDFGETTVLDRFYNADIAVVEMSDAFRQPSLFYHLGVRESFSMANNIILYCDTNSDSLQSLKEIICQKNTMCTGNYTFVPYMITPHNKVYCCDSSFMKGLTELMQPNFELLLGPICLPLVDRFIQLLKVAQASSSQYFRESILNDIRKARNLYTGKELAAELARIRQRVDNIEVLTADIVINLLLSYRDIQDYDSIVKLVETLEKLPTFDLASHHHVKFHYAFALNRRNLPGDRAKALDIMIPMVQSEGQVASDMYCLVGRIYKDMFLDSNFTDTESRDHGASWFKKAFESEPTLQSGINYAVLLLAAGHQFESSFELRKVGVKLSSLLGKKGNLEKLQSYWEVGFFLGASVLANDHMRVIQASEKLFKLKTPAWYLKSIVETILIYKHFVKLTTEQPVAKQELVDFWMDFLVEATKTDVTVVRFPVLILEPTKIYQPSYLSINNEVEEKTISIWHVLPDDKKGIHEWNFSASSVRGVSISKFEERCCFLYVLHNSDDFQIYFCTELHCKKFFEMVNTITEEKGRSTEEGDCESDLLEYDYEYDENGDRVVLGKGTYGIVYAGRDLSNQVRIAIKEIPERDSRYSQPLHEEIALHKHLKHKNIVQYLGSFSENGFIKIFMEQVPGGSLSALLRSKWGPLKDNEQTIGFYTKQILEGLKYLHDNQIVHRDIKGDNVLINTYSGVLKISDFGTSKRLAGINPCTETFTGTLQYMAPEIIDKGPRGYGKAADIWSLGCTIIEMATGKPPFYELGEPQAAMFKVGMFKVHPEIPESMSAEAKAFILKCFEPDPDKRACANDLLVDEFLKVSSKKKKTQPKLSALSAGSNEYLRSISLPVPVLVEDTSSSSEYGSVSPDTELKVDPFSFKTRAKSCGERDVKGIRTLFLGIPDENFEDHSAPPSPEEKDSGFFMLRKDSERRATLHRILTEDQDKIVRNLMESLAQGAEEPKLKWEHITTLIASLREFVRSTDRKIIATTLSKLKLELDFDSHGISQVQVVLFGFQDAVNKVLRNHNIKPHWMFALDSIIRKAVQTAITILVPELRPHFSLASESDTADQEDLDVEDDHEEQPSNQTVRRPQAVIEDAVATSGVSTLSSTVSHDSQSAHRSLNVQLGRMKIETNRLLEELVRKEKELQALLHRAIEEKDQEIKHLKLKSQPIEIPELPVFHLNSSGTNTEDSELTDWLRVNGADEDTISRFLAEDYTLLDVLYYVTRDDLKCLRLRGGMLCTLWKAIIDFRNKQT
Assay type: cell-based
Protocol: The plates were incubated at 37° C. overnight. Media on plates was changed to OPTI-MEM, serum free media and cells were transfected with 9 μg of ASK1-V5 tagged full length plasmid using Lipofectamine 2000 (Invitrogen) and the plates were incubated at 37° C. overnight. Cells were trypsinized, counted on Nexcellometer and plated into 96 well tissue culture plates with 100,000 cells/well and 200 μL media. Cells were incubated for 4 hr at 37° C. then ASK1 compounds were added using a HP 300e. Compounds were tested at 20 μM with 3 fold, 10 point dilution points then incubated for 1 hr at 37° C. A lysis buffer (Cell Signaling) was prepared with protease and phosphatase inhibitor and maintained at 4° C. until use. Media from cells was discarded and 120 μL of cold lysis buffer was added to the cells, the plate was shaken 4° C. for 1 hr. Lysate was mixed using Apricot liquid handler; aspirating up and down 16 times at high speed using 50 μL volume. […] Plates were then incubated on a plate shaker overnight at 4° C. Plates were washed 3× with MSD wash buffer and 50 μL of rabbit anti-pASK1 T838 antibody was added to the wells and incubated for 2 hr at room temperature on a plate shaker. Plates were then washed and 50 μL of goat anti-rabbit sulfa-tag (1:500 dilution) was added to wells, and incubated for 1 hr at room temperature on a plate shaker. […] Plates were immediately read on a MSD Instrument Reader where chemoluminecense signal was measured. Data was analyzed using Graph Pad or Genedata, the data was normalized and plotted, % activity versus log of compound concentration. The IC50 values were obtained from a 4 parameter fit.
Work on C[C@@H]1CCOc2cc(F)c(-c3cnn4c3CN(C)CC4)cc2C(=O)Nc2cccc(n2)-c2nncn2C1 [Example 132, (R)-5^4-Fluoro-9-methyl-5^5-(5-methyl-4,5,6,7-tetrahydropyrazolo[1,5-a]pyrazin-3-yl)-1^4H-6-oxa-3-aza-2(2,6)-pyridina-1(3,4)-triazola-5(1,2)-benzenacyclodecaphan-4-one] yielded a pIC50 of over 6.00. CN1CCn2ncc(-c3cc4c(cc3F)OCC/C=C\Cn3cnnc3-c3cccc(n3)NC4=O)c2C1 [Example 182, (Z)-5^4-Fluoro-5^5-(5-methyl-4,5,6,7-tetrahydropyrazolo[1,5-a]pyrazin-3-yl)-1^4H-6-oxa-3-aza-2(2,6)-pyridina-1(3,4)-triazola-5(1,2)-benzenacycloundecaphan-9-en-4-one] gave a pIC50 of over 6.00. For Cc1cn(-c2cc3c(cc2F)OCC[C@H](C)Cn2cnnc2-c2cccc(n2)NC3=O)cn1 [Example 133, (S)-5^4-Fluoro-9-methyl-5^5-(4-methyl-1H-imidazol-1-yl)-1^4H-6-oxa-3-aza-2(2,6)-pyridina-1(3,4)-triazola-5(1,2)-benzenacyclodecaphan-4-one], the pIC50 was over 6.00. Work on CN(C)CCn1cc(-c2cc3c(cc2C(F)(F)F)OCCCCn2cnnc2-c2cccc(n2)NC3=O)cn1 [Example 77, 5^5-(1-(2-(Dimethylamino)ethyl)-1H-pyrazol-4-yl)-5^4-(trifluoromethyl)-1^4H-6-oxa-3-aza-2(2,6)-pyridina-1(3,4)-triazola-5(1,2)-benzenacyclodecaphan-4-one] yielded a pIC50 of over 6.00. Work on C[C@H]1CCOc2cc(F)c(-c3cnn4c3CN(C)CC4)cc2C(=O)Nc2cccc(n2)-c2nncn2C1 [Example 131, (S)-5^4-Fluoro-9-methyl-5^5-(5-methyl-4,5,6,7-tetrahydropyrazolo[1,5-a]pyrazin-3-yl)-1^4H-6-oxa-3-aza-2(2,6)-pyridina-1(3,4)-triazola-5(1,2)-benzenacyclodecaphan-4-one] yielded a pIC50 of over 6.00. Work on C[C@H]1CCCOc2cc(F)c(N3CCN(C)CC3)cc2C(=O)Nc2cccc(n2)-c2nncn21 [Example 105, (S)-5^4-Fluoro-10-methyl-5^5-(4-methylpiperazin-1-yl)-1^4H-6-oxa-3-aza-2(2,6)-pyridina-1(3,4)-triazola-5(1,2)-benzenacyclodecaphan-4-one] yielded a pIC50 of over 6.00. C[C@H]1CCOc2cc(F)c(-c3cccnc3F)cc2C(=O)Nc2cccc(n2)-c2nncn2C1 [Example 128, (S)-5^4-Fluoro-5^5-(2-fluoropyridin-3-yl)-9-methyl-1^4H-6-oxa-3-aza-2(2,6)-pyridina-1(3,4)-triazola-5(1,2)-benzenacyclodecaphan-4-one] was tested, and the pIC50 was over 6.00. Work on C[C@H]1CCOc2cc(F)c(-c3ccc(F)nc3)cc2C(=O)Nc2cccc(n2)-c2nncn2C1 [Example 129, (S)-5^4-Fluoro-5^5-(6-fluoropyridin-3-yl)-9-methyl-1^4H-6-oxa-3-aza-2(2,6)-pyridina-1(3,4)-triazola-5(1,2)-benzenacyclodecaphan-4-one] yielded a pIC50 of over 6.00. C[C@H]1CCCOc2cc(F)c(-c3ccncc3F)cc2C(=O)Nc2cccc(n2)-c2nncn21 [Example 109, (S)-5^4-Fluoro-5^5-(3-fluoropyridin-4-yl)-10-methyl-1^4H-6-oxa-3-aza-2(2,6)-pyridina-1(3,4)-triazola-5(1,2)-benzenacyclodecaphan-4-one] was tested, and the pIC50 was over 6.00. With C[C@H]1CCOc2cc(F)c(N3CCOCC3)cc2C(=O)Nc2cccc(n2)-c2nncn2C1 [Example 126, (S)-5^4-Fluoro-9-methyl-5^5-morpholino-1^4H-6-oxa-3-aza-2(2,6)-pyridina-1(3,4)-triazola-5(1,2)-benzenacyclodecaphan-4-one] the pIC50 was over 6.00. For CC(C)(C#N)c1ccc2c(c1)C(=O)Nc1cccc(n1)-c1nncn1CCCCO2 [Example 51, 2-Methyl-2-(4-oxo-1^4H-6-oxa-3-aza-2(2,6)-pyridina-1(3,4)-triazola-5(1,2)-benzenacyclodecaphane-5^5-yl)propanenitrile], the pIC50 was over 6.00.
